Assays:
plasma proteins = experiment: Binding of radioactivity / [14C]eplerenone to plasma proteins; type: in vitro ADME, humans
Method: The mean concentration of total radioactivity in these samples was 2.39 μg/mL.

[1] = Multiple dose study: serum electrolytes, renin, aldosterone, sex hormone and thyroid profiles; type: in vivo, humans
Method: Multiple oral dose tolerability and the pharmacokinetics of several dosages of eplerenone were evaluated in a double-blind, randomized, placebo-controlled, rising oral dose, sequential panel study of 40 healthy male subjects (five groups of eight subjects). The study medication was administered in […] sequential dose panels, with each panel including eplerenone, spironolactone and placebo. […] The 100 mg and 200 mg dose capsules corresponded to those described in Examples 7 and 8, respectively. Following a 48-hour interval, the study drug was administered once a day for 11 days. Antialdosterone activity was determined following a fludrocortisone challenge on Days 12-13.
Excretion of total eplerenone (that is, eplerenone and its open ring lactone form) in the urine represented approximately 5% of the dose for all doses administered. Urinary excretion of total eplerenone occurred almost entirely within the first 24 hours after dosing.

[2] = Solubility in aqueous solution; type: physicochemical; settings: also micronized
[3] = Effect of food study: safety and tolerability; type: in vivo, humans; settings: single 100 mg dose, fasted or fed
Method: An open-label randomized, cross-over study was employed to evaluate the pharmacokinetic profiles of eplerenone under fasted and fed conditions, and the safety and tolerability of eplerenone. Safety was assessed based on adverse events, vital signs and clinical laboratory tests. Twelve healthy male subjects were randomized to receive a single 100 mg dose of eplerenone on days 1 and 8 under (i) fasted conditions, or (ii) immediately following a high-fat breakfast. The subjects were orally administered (dosed) a single 100 mg dose of eplerenone in the form of the capsule described in Example 7, together with approximately 200 to 240 mL of water at 0800 hours on days 1 and 8. Subjects randomized to receive a high-fat breakfast were to completely ingest the meal within 20 minutes prior to dosing. The high-fat meal contained approximately 33 g protein, 75 g fat, 58 g carbohydrates and 1000 calories. […] All adverse events were mild in severity.

blood pressure = experiment: Treatment of hypertension study: blood pressure; type: in vivo, humans; settings: for 24 hour mean ΔDBP / 24 hour mean ΔSBP / Primary Efficacy Variable: ΔDBP at trough (sitting) / ΔSBP at trough (sitting): eight weeks
Method: The safety and efficacy of a range of doses of eplerenone in the treatment of hypertension relative to placebo were evaluated in a multi-center, randomized, double-blind, placebo-lead-in, parallel group study. […] The primary efficacy variable was the change in cuff diastolic blood pressure (ADBP; sitting) measured at trough plasma levels after eight weeks of double blind treatment. The secondary variables measured were the change in trough cuff systolic blood pressure (ΔSBP; sitting), change in 24 hour mean diastolic blood pressure (ΔDBP), and change in 24 hour mean systolic blood pressure (ΔSBP). The primary and secondary efficacy variables were analyzed to compare BID versus QD dosing regimens for each eplerenone dose group, and both eplerenone and spironolactone versus placebo. Changes in plasma renin and serum aldosterone after eight weeks of dosing were also analyzed as secondary measures of efficacy.
The specific pharmaceutical compositions of each eplerenone capsule are reported in Examples 5, 6, 7 and 8. The placebo was a conventional capsule containing lactose.

COC(=O)C1CC2=CC(=O)CCC2(C)C23OC2CC2(C)C(CC[C@@]24CCC(=O)O4)C13 (stereo partly drawn) [eplerenone, methyl hydrogen 9,11α-epoxy-17α-hydroxy-3-oxopregn-4-ene-7α,21-dicarboxylate, γ-lactone]
total radioactivity bound to plasma proteins (plasma proteins; 1.5 hour plasma samples, mean): 49.4% | percentage of eplerenone bound (plasma proteins; [14C]eplerenone spiked into frozen control plasma, 14.5 μg/mL): 40.4% | mean plasma renin (active and total) levels ([1]; 100-1000 mg): dose-related increases | serum aldosterone levels ([1]; 100-1000 mg): dose-related increases | serum sex hormone and thyroid profiles ([1]; 100-1000 mg): did not show any consistent, sustained or dose-related effects | serum potassium concentrations ([1]; multiple dose administration): increases | serum sodium concentrations ([1]; multiple dose administration): transient reductions | serum sodium and potassium concentrations ([1]; single doses): not significantly changed | solubility in aqueous solution [2]: largely insoluble | changes in vital signs or physical examinations [3]: no clinically significant changes | severity of adverse events [3]: mild | 24 hour mean ΔDBP (blood pressure; 25 mg BID): −3.9 mmHg | 24 hour mean ΔSBP (blood pressure; 25 mg BID): −7.4 mmHg | Primary Efficacy Variable: ΔDBP at trough (sitting) (blood pressure; 25 mg BID): −4.5 mmHg | ΔSBP at trough (sitting) (blood pressure; 25 mg BID): −8.9 mmHg | 24 hour mean ΔDBP (blood pressure; 50 mg BID): −7.2 mmHg | 24 hour mean ΔSBP (blood pressure; 50 mg BID): −12.6 mmHg | Primary Efficacy Variable: ΔDBP at trough (sitting) (blood pressure; 50 mg BID): −7.8 mmHg | ΔSBP at trough (sitting) (blood pressure; 50 mg BID): −11.8 mmHg | 24 hour mean ΔDBP (blood pressure; 50 mg QD): −4.8 mmHg | 24 hour mean ΔSBP (blood pressure; 50 mg QD): −7.1 mmHg | Primary Efficacy Variable: ΔDBP at trough (sitting) (blood pressure; 50 mg QD): −4.4 mmHg | ΔSBP at trough (sitting) (blood pressure; 50 mg QD): −4.6 mmHg | 24 hour mean ΔDBP (blood pressure; 100 mg QD): −6.1 mmHg | 24 hour mean ΔSBP (blood pressure; 100 mg QD): −9.7 mmHg | Primary Efficacy Variable: ΔDBP at trough (sitting) (blood pressure; 100 mg QD): −4.5 mmHg | ΔSBP at trough (sitting) (blood pressure; 100 mg QD): −8.0 mmHg | 24 hour mean ΔDBP (blood pressure; 200 mg BID): −9.3 mmHg | 24 hour mean ΔSBP (blood pressure; 200 mg BID): −15.9 mmHg | Primary Efficacy Variable: ΔDBP at trough (sitting) (blood pressure; 200 mg BID): −9.4 mmHg | ΔSBP at trough (sitting) (blood pressure; 200 mg BID): −15.8 mmHg | 24 hour mean ΔDBP (blood pressure; 400 mg QD): −7.6 mmHg | 24 hour mean ΔSBP (blood pressure; 400 mg QD): −13.0 mmHg | Primary Efficacy Variable: ΔDBP at trough (sitting) (blood pressure; 400 mg QD): −8.9 mmHg | ΔSBP at trough (sitting) (blood pressure; 400 mg QD): −14.1 mmHg | cuff diastolic and systolic pressures from baseline compared to placebo (blood pressure; all eplerenone doses, eight weeks of treatment, hypertension patients): lowered | blood pressure reduction, QD versus BID dosing regimens (blood pressure; eight weeks of treatment): equivalent reductions

Reference: US6410054B1, “Immediate release eplerenone compositions” (G. D. Searle & Co., priority 1998, dated 2002)
